Measured values from ChEMBL document CHEMBL1130060, “Novel prodrugs of cyanamide that inhibit aldehyde dehydrogenase in vivo” (1997).

Key:
[1] = test system: Rattus norvegicus; test: Blood EtOH level in rats following the administration of the compound.; assay type: functional
[2] = test system: Rattus norvegicus; test: Blood acetaldehyde level in rats following the administration of the compound.; assay type: functional
[3] = target: T1, Aldehyde dehydrogenase 1A1 (Rattus norvegicus) (UniProt P51647); test: Inhibitory activity against aldehyde dehydrogenase in rats.; conditions: concentration not given here
T1 sequence (whole entry): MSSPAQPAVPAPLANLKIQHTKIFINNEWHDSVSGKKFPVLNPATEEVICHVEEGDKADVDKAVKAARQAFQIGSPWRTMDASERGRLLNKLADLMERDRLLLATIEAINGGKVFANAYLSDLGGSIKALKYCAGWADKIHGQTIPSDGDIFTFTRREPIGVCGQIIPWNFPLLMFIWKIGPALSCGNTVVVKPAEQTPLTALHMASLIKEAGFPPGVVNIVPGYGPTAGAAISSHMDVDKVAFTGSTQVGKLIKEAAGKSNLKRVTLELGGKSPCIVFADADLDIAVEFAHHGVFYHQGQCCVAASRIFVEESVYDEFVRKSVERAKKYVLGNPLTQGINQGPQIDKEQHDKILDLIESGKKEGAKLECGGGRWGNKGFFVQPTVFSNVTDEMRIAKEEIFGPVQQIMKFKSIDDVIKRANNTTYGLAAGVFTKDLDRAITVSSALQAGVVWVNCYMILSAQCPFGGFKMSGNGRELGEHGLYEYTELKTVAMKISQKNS

| inhibition [3] [%] | SMILES | Potency [1] [mM] | Potency [2] [mM] |
| --- | --- | --- | --- |
| – | CC(=O)NCCSC(=N)N | 50.1 | 0.067 |
| 82 | CCCCSC(=N)N | – | – |
| 66 | CC(C)CSC(=N)N | – | – |
| 88 | C=CCSC(=N)N | – | – |
